Legend:
[1] = test system: Pseudomonas aeruginosa CF86/57388A (mucoid); assay: Pseudomonas aeruginosa lung infection in rats: lung pathology and lung bacteriology; format: in vivo, Lewis rat; conditions: for Lung bacteriology: Percentage of animals that cleared the bacteria in the lungs / Lung pathological scores: animals with Score 1 + 2 / Lung pathological scores: animals with Score 3 / Lung pathological scores: animals with Score 4: 0.1 mg/ml, 0.1 ml/rat intratracheally at hour 0 and 3
Procedure: The bacterial strain, Pseudomonas aeruginosa, used in the study is CF86/57388A (1997), which is isolated from a cystic fibrosis patient and keeps stable mucoid phenotype. The rat strain used in the study is Lewis rat (7 weeks old, female) imported from Germany. Both bacterial challenge and drug administration were done intratracheally. All rats were challenged with mucoid P. aeruginosa in alginate. The concentration of the bacteria was 1×10^10 CFU/ml and each rat received 0.1 ml (1×10^9 CFU) bacteria. Control group received placebo (sterile saline, 0.1 ml/rat) twice at hour 0 and 3, and the Novispirin G10 group received the peptide (0.1 mg/ml, 0.1 ml/rat) twice at hour 0 and 3. The animals were sacrificed on day 3, 5, 7 and 10 after challenge for parameters evaluation.

[2] = test system: Staphylococcus aureus (ATCC 25923); assay: Staphylococcus aureus wound infection in pigs (wound chambers, 4 hour time course); format: in vivo, Göttinger minipigs; conditions: 1 ml applied
Procedure: The bacterial strain, Staphylococcus aureus, used in the study was ATCC 25923. The amino acid sequence of Novispirin G10 is shown in SEQ ID NO: 16.
Novispirin G10 was diluted in 0.01% acetic acid containing 0.1% BSA with a final concentration of 1 mg (substrate)/ml (solution); 100 micrograms/ml; 10 micrograms/ml and 1 microgram/ml. The carrier control was 0.01% acetic acid containing 0.1% BSA. As a positive control was used Synthetic Protegrin 1 (Charité, Institut f. Biochemie d. Humboldt Universität Berlin) diluted in 0.01% acetic acid containing 0.1% BSA with a final concentration of 100 micrograms/ml.
The chambers are made of one piece of titanium, have a screw top cover (also made of titanium) and were built in teamwork with Cranio Construct Bochum. The chambers have a height of 14 mm, an inner diameter of 25 mm and an outer diameter of 32 mm without baseplate (with baseplate: 50 mm).
After providing permission to conduct experiments with vertebrates in compliance with German animal protection laws, Göttinger minipigs (Fa. Ellegaard, Dalmose, Denmark; female, 6 months old, 25-30 kg weight) were chosen to implant the chambers on. The pigs were kept at least 2 weeks in the stable, fed a standard porcine diet and housed at 20° C. to 30° C. in an atmosphere of approximately 65% humidity with a light cycle of 12 hours on and 12 hours off. The animals used for this study appeared, during the experiments, clinically healthy—rectal temperature and body weight remained normal over the observed period.
Before wounding the skin was surgically prepared, washed with soap and disinfected with Octenisept (S&M, Norderstedt, Germany) for five minutes. Twelve BO-Chambers were implanted on the pigs back and flank between the base of the scapula and the iliac crest. The wounds were spaced a minimum of 5 cm apart and were created in four rows parallel to the columna vertebralis, two rows on each side of the columna vertebrtalis. The exact size and shape of the wounds were ensured by a special custom-made “round-scalpel” (also built in teamwork with Cranio Construct Bochum), which has a diameter of 33 mm. Epidermal, dermal subcutaneous tissues were removed, possible bleedings stanched by bipolar diathermy. The chambers were placed with an additionally secant v-incision at positions 6 respectively 12 o'clock on the musculus thoracicus longus fascia and the muscle fascia of the external ripcage muscles. The incisions were sutured with 2/0 Monocryl followed by the closure of the chambers. Povidone-iodine salve (Betaisodonna-salve, Mundipharma, Austria) was smothered on the wound edges. The chambers were dressed with paraffin gauze (Jelonet, Smith & Nephew, Lohfelden, Germany) and sterile compresses. Dressings were changed every second day under sedation (as described above).
Bacterial Background of each chamber was measured every second day, to detect potential contamination. Only one contaminated chamber was detected. Seven days post operation ten chambers were inoculated with bacteria.
For bacteria progeny Staphylococcus aureus (ATCC 25923) was plated on LB-Agar plate and incubated at 37° C. for 18 hours. One colony was picked and transfered into 3 ml LB-Medium for over night culture at 37° C. at 300 rpm. Over night culture was diluted in 50 ml fresh LB-Medium and incubated for 2.5 hours at 37° C. at 200 rpm.
Bacteria were pelleted, 4000 rpm, 5 min, Mergafuge 1.0 R (Heraeus, Hanau, Germany), and resuspended in PBS. Amount of containg bacteria was detremined by OD600 nm-measurement and calculated as follows: Colony forming Unit/ml=OD600 nm×2.5×10^8 (bacteria)
To inoculate one chamber 5×10^8 were used.
The establishment of the infection was proven by the measurement of bacterial counts per chamber. All inoculated chambers were infected after two days. Chamber No. 2 keeps bacteria free.
At day four after infection the antimicrobial effect of the testing substrate was measured in a time course of 4 hours in duration. […]

[3] = test system: P. acnes (erythromycin resistant); assay: MIC on Propionebacterium acnes, erythromycin resistant strain; format: cell-based; conditions: clinically resistant to clindamycin and erythromycin
Procedure: Minimal Inhibitory Concentration (MIC) of Novispirin G10 (SEQ ID NO: 16) was evaluated against P. acnes. Two strains were tested—one of which is clinically resistant to clindamycin and erythromycin.

**Q.** With “Novispirin G10: novispirin antimicrobial polypeptide; amino acid sequence shown in SEQ ID NO: 16 (KNLRRIIRKGIHIIKKYG; Synthetic antimicrobial peptide)” as the substance, how does the “Lung bacteriology: Percentage of animals that cleared the bacteria in the lungs” value (shortened to “Lung bacteriology: Percentage”) ([1]; Day 3) read?
**A.** Its value is “(30%)”.

**Q.** What about the “Lung bacteriology: Percentage” value ([1]; Day 5) of the same substance?
**A.** Its value is “(50%)”.

**Q.** What about the “Lung bacteriology: Percentage” value ([1]; Day 7) of the same substance?
**A.** Its value is “(90%)”.

**Q.** And the “Lung bacteriology: Percentage” value ([1]; Day 10)?
**A.** The value was “(100%)”.

**Q.** What about the “Gross lung pathology compared with the placebo control group” value ([1]; all 4 time points (day 3, 5, 7, 10)) of the same substance?
**A.** Its value is “significantly milder lung pathology”.

**Q.** And the Histopathology of lungs ([1]; day 3)?
**A.** The Histopathology of lungs was “lung consolidation with chronic inflammation is the dominant change”.

**Q.** What about the “Lung bacteriology compared to the control group” value ([1]; day 3) of the same substance?
**A.** Its value is 175 times lower.

**Q.** What about the “Severity of lung scoring versus control group” value ([1]; day 3) of the same substance?
**A.** Its value is “no significant difference in the severity of lung scoring”.

**Q.** And the “Gross lung pathology: lung consolidation area” value ([1]; day 3, versus placebo control)?
**A.** The value was “the consolidation area was much smaller”.

**Q.** What about the “Lung pathological scores: animals with Score 1 + 2” value ([1]; day 3 after challenge) of the same substance?
**A.** The value was 0/14 = 0%.

**Q.** What about the “Lung pathological scores: animals with Score 3” value ([1]; day 3 after challenge) of the same substance?
**A.** The value was 3/14 = 21.4%.

**Q.** What about the “Lung pathological scores: animals with Score 4” value ([1]; day 3 after challenge) of the same substance?
**A.** The value was 11/14 = 78.6%.

**Q.** What about the Histopathology of lungs ([1]; day 5) of the same substance?
**A.** Its Histopathology of lungs is “milder chronic inflammation”.

**Q.** And the “Lung pathological scores: animals with Score 1 + 2” value ([1]; day 5 after challenge)?
**A.** Its value is 0/14 = 0%.

**Q.** What about the “Lung pathological scores: animals with Score 3” value ([1]; day 5 after challenge) of the same substance?
**A.** The value was 10/14 = 71.4%.

**Q.** And the “Lung pathological scores: animals with Score 4” value ([1]; day 5 after challenge)?
**A.** Its value is 0/14 = 0%.

**Q.** And the “Lung pathological scores: animals with Score 1 + 2” value ([1]; day 7 after challenge)?
**A.** The value was 6/11 = 54.5%.

**Q.** And the “Lung pathological scores: animals with Score 3” value ([1]; day 7 after challenge)?
**A.** The value was 5/11 = 45.5%.

**Q.** What about the “Lung pathological scores: animals with Score 4” value ([1]; day 7 after challenge) of the same substance?
**A.** The value was 0/11 = 0%.

**Q.** And the Histopathology of lungs ([1]; day 10)?
**A.** The Histopathology of lungs was “the lung pathology was tended to be cured”.

**Q.** What about the “Lung pathological scores: animals with Score 1 + 2” value ([1]; day 10 after challenge) of the same substance?
**A.** Its value is 11/14 = 78.6%.

**Q.** And the “Lung pathological scores: animals with Score 3” value ([1]; day 10 after challenge)?
**A.** The value was 3/14 = 21.4%.

**Q.** What about the “Lung pathological scores: animals with Score 4” value ([1]; day 10 after challenge) of the same substance?
**A.** Its value is 0/14 = 0%.

**Q.** And the “Gross lung pathology: dominant finding” value ([1]; days 5, 7 and 10)?
**A.** Its value is “small lung atelectasis, no abscess and adhesion found”.

**Q.** And the “Severity of lung scoring versus control group” value ([1]; from day 5 on)?
**A.** Its value is “significantly milder lung pathology”.

**Q.** What about the “Histopathology of lungs in comparison with the placebo control group” value ([1]; overall, intratracheal treatment) of the same substance?
**A.** Its value is “milder lung inflammation and recover remarkably faster”.

**Q.** And the “Mean CFU per ml sample volume (chamber fluid)” value (“Mean CFU per ml sample volume” below) ([2]; 1 mg/ml, 0 hours)?
**A.** The value was 10700000 CFU/ml.

**Q.** And the “Mean CFU per ml sample volume” value ([2]; 1 mg/ml, 1 hour)?
**A.** The value was 2817 CFU/ml.

**Q.** What about the “Mean CFU per ml sample volume” value ([2]; 1 mg/ml, 2 hours) of the same substance?
**A.** Its value is 2100 CFU/ml.

**Q.** And the “Mean CFU per ml sample volume” value ([2]; 1 mg/ml, 3 hours)?
**A.** The value was 833 CFU/ml.

**Q.** And the “Mean CFU per ml sample volume” value ([2]; 1 mg/ml, 4 hours)?
**A.** The value was 1233 CFU/ml.

**Q.** And the “Mean CFU per ml sample volume” value ([2]; 1 microgram/ml, 0 hours)?
**A.** The value was 9060000 CFU/ml.

**Q.** What about the “Mean CFU per ml sample volume” value ([2]; 1 microgram/ml, 1 hour) of the same substance?
**A.** Its value is 2508333 CFU/ml.

**Q.** And the “Mean CFU per ml sample volume” value ([2]; 1 microgram/ml, 2 hours)?
**A.** The value was 159067 CFU/ml.

**Q.** And the “Mean CFU per ml sample volume” value ([2]; 1 microgram/ml, 3 hours)?
**A.** Its value is 33858 CFU/ml.

**Q.** And the “Mean CFU per ml sample volume” value ([2]; 1 microgram/ml, 4 hours)?
**A.** The value was 148333 CFU/ml.

**Q.** And the “Mean CFU per ml sample volume” value ([2]; 10 micrograms/ml, 0 hours)?
**A.** Its value is 5065000 CFU/ml.

**Q.** And the “Mean CFU per ml sample volume” value ([2]; 10 micrograms/ml, 1 hour)?
**A.** Its value is 440500 CFU/ml.

**Q.** What about the “Mean CFU per ml sample volume” value ([2]; 10 micrograms/ml, 2 hours) of the same substance?
**A.** Its value is 304500 CFU/ml.

**Q.** And the “Mean CFU per ml sample volume” value ([2]; 10 micrograms/ml, 3 hours)?
**A.** The value was 40910 CFU/ml.

**Q.** What about the “Mean CFU per ml sample volume” value ([2]; 10 micrograms/ml, 4 hours) of the same substance?
**A.** Its value is 1563188 CFU/ml.

**Q.** And the “Mean CFU per ml sample volume” value ([2]; 100 micrograms/ml, 0 hours)?
**A.** Its value is 1330000 CFU/ml.

**Q.** And the “Mean CFU per ml sample volume” value ([2]; 100 micrograms/ml, 1 hour)?
**A.** Its value is 790033 CFU/ml.

**Q.** What about the “Mean CFU per ml sample volume” value ([2]; 100 micrograms/ml, 2 hours) of the same substance?
**A.** Its value is 195125 CFU/ml.

**Q.** And the “Mean CFU per ml sample volume” value ([2]; 100 micrograms/ml, 3 hours)?
**A.** The value was 142765 CFU/ml.

**Q.** And the “Mean CFU per ml sample volume” value ([2]; 100 micrograms/ml, 4 hours)?
**A.** Its value is 8467 CFU/ml.

**Q.** What about the “Minimal Inhibitory Concentration (MIC)” value [3] of the same substance?
**A.** Its value is 1.
